Measured values: US11395847B2, “Acylated GLP-1/GLP-2 dual agonists” (Zealand Pharma A/S, priority 2016, dated 2022)
Where a SMILES comes first, the peptide text is derived from it.

Experiments:
[1] = Chemical stability (RP-HPLC normalized purity after incubation at 40° C.); assay type: physicochemical; settings: 14-day incubation, 0.2 mg/ml, normalized purity (area-%); for pH 6 normalized stability: pH 6, 40° C.; for pH 7 normalized stability: pH 7, 40° C.
Summary of the method: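 Peptide at 0.2 mg/ml final in water adjusted to pH 6, 7, 7.5 or 9, incubated at 40° C for 14 days. Purity measured as main-peak area-% by C18 RP-HPLC (acetonitrile/TFA/water gradient, UV 220 nm) and normalized to T=0 set at 100 for each pH.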

[2] = biological target: T1, human GLP-1 receptor (Homo sapiens, UniProt P43220); assay: GLP-1 receptor potency assay (cAMP ALPHASCREEN, HEK293 cells stably expressing GLP-1 R); assay type: cell-based; settings: cAMP response, HEK293 cells expressing human GLP-1 R
T1 construct: expressed in transfected cells
T1 sequence (P43220 24-463): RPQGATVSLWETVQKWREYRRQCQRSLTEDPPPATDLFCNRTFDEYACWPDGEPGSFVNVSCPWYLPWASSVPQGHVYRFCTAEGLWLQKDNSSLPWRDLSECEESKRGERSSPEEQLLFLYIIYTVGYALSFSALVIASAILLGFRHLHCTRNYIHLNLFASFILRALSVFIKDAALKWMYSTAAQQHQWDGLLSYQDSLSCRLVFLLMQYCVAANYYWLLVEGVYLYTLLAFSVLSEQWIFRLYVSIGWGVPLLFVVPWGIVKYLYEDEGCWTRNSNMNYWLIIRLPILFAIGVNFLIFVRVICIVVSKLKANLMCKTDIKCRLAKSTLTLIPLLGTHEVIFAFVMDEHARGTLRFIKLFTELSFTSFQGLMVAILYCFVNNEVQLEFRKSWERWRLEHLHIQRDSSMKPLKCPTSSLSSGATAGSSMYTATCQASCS
Text: One useful in vitro assay for measuring GLP-1 and GLP-2 receptor activity is quantitation of cAMP, i.e. 3′-5′-cyclic adenosine monophosphate, which is a second messenger essential in many biological processes, and one of the most ubiquitous mechanisms for regulating cellular functions.
The cDNA encoding the human glucagon-like peptide 1 receptor (GLP-1 R) (primary accession number P43220) was cloned from the cDNA BC112126 (MGC:138331/IMAGE:8327594). The DNA encoding the GLP-1-R was amplified by PCR using primers encoding terminal restriction sites for subcloning. The 5′-end primers additionally encoded a near Kozak consensus sequence to ensure efficient translation. […] The PCR products encoding the GLP-1-R were subcloned into a mammalian expression vector containing a neomycin (G418) resistance marker. The mammalian expression vectors encoding the GLP-1-R were transfected into HEK293 cells by a standard calcium phosphate transfection method. 48 hours post-transfection, cells were seeded for limited dilution cloning and selected with 1 mg/ml G418 in the culture medium. Following 3 weeks in G418 selection clones were picked and tested in a functional GLP-1 receptor potency assay as described below.
The cAMP ALPHASCREEN® assay from Perkin Elmer was used to quantitate the cAMP response to activation of the GLP1 and GLP2 receptor, respectively. […] Data from test compounds eliciting an increase in the intracellular level of cAMP were normalized relative to the positive and negative control (vehicle) to calculate the EC50 and maximal response from the concentration response curve.

[3] = biological target: T2, human GLP-2 receptor (Homo sapiens, UniProt O95838, D470N); assay: GLP-2 receptor potency assay (cAMP ALPHASCREEN, HEK293 cells stably expressing GLP-2 R); assay type: cell-based; settings: cAMP response, HEK293 cells expressing human GLP-2 R; read-out: EC50 GLP-2
T2 construct: expressed in transfected cells
T2 sequence (O95838 1-553 D470N): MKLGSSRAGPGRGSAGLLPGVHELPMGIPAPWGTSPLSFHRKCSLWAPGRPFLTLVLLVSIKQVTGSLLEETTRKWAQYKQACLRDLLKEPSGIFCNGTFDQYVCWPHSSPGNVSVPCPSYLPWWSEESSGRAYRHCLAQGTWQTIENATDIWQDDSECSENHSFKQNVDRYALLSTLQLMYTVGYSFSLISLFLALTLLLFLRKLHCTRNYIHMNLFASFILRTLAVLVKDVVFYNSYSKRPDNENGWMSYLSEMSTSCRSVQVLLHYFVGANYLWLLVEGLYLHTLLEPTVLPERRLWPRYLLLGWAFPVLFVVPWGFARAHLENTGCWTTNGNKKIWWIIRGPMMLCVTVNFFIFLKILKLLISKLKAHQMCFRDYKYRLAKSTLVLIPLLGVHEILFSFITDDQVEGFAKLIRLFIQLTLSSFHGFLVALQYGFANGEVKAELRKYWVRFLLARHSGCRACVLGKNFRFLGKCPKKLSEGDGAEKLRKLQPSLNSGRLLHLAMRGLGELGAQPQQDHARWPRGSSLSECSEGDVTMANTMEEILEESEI
Summary of the method: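 HEK293 clones stably transfected with the human GLP-2 receptor, selected with G418, were used. Intracellular cAMP was quantified by AlphaScreen. Responses were normalised to positive and vehicle controls, and EC50 and maximal response were taken from concentration-response curves.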

pH 6 normalized stability [1]	pH 7 normalized stability [1]	EC50 [2] [nM]	EC50 [3] [nM]	Structure (SMILES)
A (>90% normalised stability)	A (>90% normalised stability)	0.13		CC[C@H](C)[C@H](NC(=O)[C@H](Cc1ccccc1)NC(=O)[C@H](CC(=O)O)NC(=O)[C@H](CCCNC(=N)N)NC(=O)[C@H](C)NC(=O)[C@H](C)NC(=O)[C@H](CCC(=O)O)NC(=O)[C@H](CCCCNC(=O)CC[C@H](NC(=O)CCCCCCCCCCCCCCCCC(=O)O)C(=O)O)NC(=O)[C@H](CC(=O)O)NC(=O)[C@H](CC(C)C)NC(=O)[C@@H](NC(=O)[C@@H](NC(=O)[C@H](C)NC(=O)[C@H](CC(C)C)NC(=O)[C@H](CCC(=O)O)NC(=O)[C@H](CO)NC(=O)[C@@H](NC(=O)[C@H](Cc1ccccc1)NC(=O)[C@H](CO)NC(=O)CNC(=O)[C@H](CCC(=O)O)NC(=O)C(C)(C)NC(=O)[C@@H](N)Cc1c[nH]cn1)[C@@H](C)O)[C@@H](C)O)[C@@H](C)CC)C(=O)N[C@@H](C)C(=O)N[C@@H](Cc1c[nH]c2ccccc12)C(=O)N[C@@H](CC(C)C)C(=O)N[C@H](C(=O)N[C@@H](CCC(=O)O)C(=O)N[C@@H](Cc1c[nH]cn1)C(=O)N[C@@H](CCCCN)C(=O)N[C@H](C(=O)N[C@H](C(=O)N[C@@H](CC(=O)O)C(=O)O)[C@@H](C)O)[C@@H](C)CC)[C@@H](C)CC [Compound 2] (HELM PEPTIDE1{H.[Aib].E.G.S.F.T.S.E.L.A.T.I.L.D.K.E.A.A.R.D.F.I.A.W.L.I.E.H.K.I.T.D}|PEPTIDE2{[O=C(O)CCCCCCCCCCCCCCCCC(=O)[*:2]].[gGlu]}$PEPTIDE1,PEPTIDE2,16:R3-2:R2$$$V2.0)
	A (>90% normalised stability)	0.32		CC[C@H](C)[C@H](NC(=O)[C@H](Cc1ccccc1)NC(=O)[C@H](CC(=O)O)NC(=O)[C@H](CCCNC(=N)N)NC(=O)[C@H](C)NC(=O)[C@H](C)NC(=O)[C@H](CC(C)C)NC(=O)[C@H](CCCCNC(=O)CC[C@H](NC(=O)CCCCCCCCCCCCCCCCC(=O)O)C(=O)O)NC(=O)[C@H](CC(=O)O)NC(=O)[C@H](CC(C)C)NC(=O)[C@@H](NC(=O)[C@@H](NC(=O)[C@H](C)NC(=O)[C@H](CC(C)C)NC(=O)[C@H](CCC(=O)O)NC(=O)[C@H](CO)NC(=O)[C@@H](NC(=O)[C@H](Cc1ccccc1)NC(=O)[C@H](CO)NC(=O)CNC(=O)[C@H](CCC(=O)O)NC(=O)C(C)(C)NC(=O)[C@@H](N)Cc1c[nH]cn1)[C@@H](C)O)[C@@H](C)O)[C@@H](C)CC)C(=O)N[C@@H](C)C(=O)N[C@@H](Cc1c[nH]c2ccccc12)C(=O)N[C@@H](CC(C)C)C(=O)N[C@H](C(=O)N[C@@H](CCC(=O)O)C(=O)N[C@@H](Cc1c[nH]cn1)C(=O)N[C@@H](CCCCN)C(=O)N[C@H](C(=O)N[C@H](C(=O)N[C@@H](CC(=O)O)C(=O)O)[C@@H](C)O)[C@@H](C)CC)[C@@H](C)CC [Compound 11] (HELM PEPTIDE1{H.[Aib].E.G.S.F.T.S.E.L.A.T.I.L.D.K.L.A.A.R.D.F.I.A.W.L.I.E.H.K.I.T.D}|PEPTIDE2{[O=C(O)CCCCCCCCCCCCCCCCC(=O)[*:2]].[gGlu]}$PEPTIDE1,PEPTIDE2,16:R3-2:R2$$$V2.0)
		0.13	0.2	CC[C@H](C)[C@H](NC(=O)[C@H](Cc1ccccc1)NC(=O)[C@H](CC(=O)O)NC(=O)[C@H](CCCNC(=N)N)NC(=O)[C@H](C)NC(=O)[C@H](C)NC(=O)[C@H](CCCCNC(=O)COCCOCCNC(=O)[C@H](CCCCN)NC(=O)[C@H](CCC(=O)O)NC(=O)[C@H](CCCCN)NC(=O)CC[C@H](NC(=O)CCCCCCCCCCCCCCCCCCC(=O)O)C(=O)O)NC(=O)CNC(=O)[C@H](CCC(=O)O)NC(=O)[C@H](CC(C)C)NC(=O)[C@@H](NC(=O)[C@@H](NC(=O)[C@H](C)NC(=O)[C@H](CC(C)C)NC(=O)[C@H](CCC(=O)O)NC(=O)[C@H](CO)NC(=O)[C@@H](NC(=O)[C@H](Cc1ccccc1)NC(=O)[C@H](CO)NC(=O)CNC(=O)[C@H](CCC(=O)O)NC(=O)C(C)(C)NC(=O)[C@@H](N)Cc1c[nH]cn1)[C@@H](C)O)[C@@H](C)O)[C@@H](C)CC)C(=O)N[C@@H](C)C(=O)N[C@@H](Cc1c[nH]c2ccccc12)C(=O)N[C@@H](CC(C)C)C(=O)N[C@H](C(=O)N[C@@H](CCC(=O)O)C(=O)N[C@@H](Cc1c[nH]cn1)C(=O)N[C@@H](CCCCN)C(=O)N[C@H](C(=O)N[C@H](C(=O)N[C@@H](CC(=O)O)C(=O)O)[C@@H](C)O)[C@@H](C)CC)[C@@H](C)CC [Compound 61] (HELM PEPTIDE1{H.[Aib].E.G.S.F.T.S.E.L.A.T.I.L.E.G.K.A.A.R.D.F.I.A.W.L.I.E.H.K.I.T.D}|PEPTIDE2{[O=C(O)CCCCCCCCCCCCCCCCCCC(=O)[*:2]].[gGlu].K.E.K.[O=C(COCCOCCN[*:1])[*:2]]}$PEPTIDE1,PEPTIDE2,17:R3-6:R2$$$V2.0)

Second part, the compound before the results:

Structure (SMILES)	pH 6 normalized stability [1]	pH 7 normalized stability [1]	EC50 [2] [nM]	EC50 [3] [nM]
CC[C@H](C)[C@H](NC(=O)[C@H](Cc1ccccc1)NC(=O)[C@H](CC(=O)O)NC(=O)[C@H](CCCNC(=N)N)NC(=O)[C@H](C)NC(=O)[C@H](C)NC(=O)[C@H](CCCCNC(=O)COCCOCCNC(=O)[C@H](CCCCN)NC(=O)[C@H](CCC(=O)O)NC(=O)[C@H](CCCCN)NC(=O)CC[C@H](NC(=O)CCCCCCCCCCCCCCCCCCC(=O)O)C(=O)O)NC(=O)[C@H](C)NC(=O)[C@H](CC(=O)O)NC(=O)[C@H](CC(C)C)NC(=O)[C@@H](NC(=O)[C@@H](NC(=O)[C@H](C)NC(=O)[C@H](CC(C)C)NC(=O)[C@H](CCC(=O)O)NC(=O)[C@H](CO)NC(=O)[C@@H](NC(=O)[C@H](Cc1ccccc1)NC(=O)[C@H](CO)NC(=O)CNC(=O)[C@H](CCC(=O)O)NC(=O)C(C)(C)NC(=O)[C@@H](N)Cc1c[nH]cn1)[C@@H](C)O)[C@@H](C)O)[C@@H](C)CC)C(=O)N[C@@H](C)C(=O)N[C@@H](Cc1c[nH]c2ccccc12)C(=O)N[C@@H](CC(C)C)C(=O)N[C@H](C(=O)N[C@@H](CCC(=O)O)C(=O)N[C@@H](Cc1c[nH]cn1)C(=O)N[C@@H](CCCCN)C(=O)N[C@H](C(=O)N[C@H](C(=O)N[C@@H](CC(=O)O)C(=O)O)[C@@H](C)O)[C@@H](C)CC)[C@@H](C)CC [Compound 62] (HELM PEPTIDE1{H.[Aib].E.G.S.F.T.S.E.L.A.T.I.L.D.A.K.A.A.R.D.F.I.A.W.L.I.E.H.K.I.T.D}|PEPTIDE2{[O=C(O)CCCCCCCCCCCCCCCCCCC(=O)[*:2]].[gGlu].K.E.K.[O=C(COCCOCCN[*:1])[*:2]]}$PEPTIDE1,PEPTIDE2,17:R3-6:R2$$$V2.0)			0.27	0.15
CC[C@H](C)[C@H](NC(=O)[C@H](Cc1ccccc1)NC(=O)[C@H](CC(=O)O)NC(=O)[C@H](CCCNC(=N)N)NC(=O)[C@H](C)NC(=O)[C@H](C)NC(=O)[C@H](CCC(N)=O)NC(=O)[C@H](CCCCNC(=O)CC[C@H](NC(=O)CCCCCCCCCCCCCCCCC(=O)O)C(=O)O)NC(=O)[C@H](CC(=O)O)NC(=O)[C@H](CC(C)C)NC(=O)[C@@H](NC(=O)[C@@H](NC(=O)[C@H](C)NC(=O)[C@H](CC(C)C)NC(=O)[C@H](CCC(=O)O)NC(=O)[C@H](CO)NC(=O)[C@@H](NC(=O)[C@H](Cc1ccccc1)NC(=O)[C@H](CO)NC(=O)CNC(=O)[C@H](CCC(=O)O)NC(=O)C(C)(C)NC(=O)[C@@H](N)Cc1c[nH]cn1)[C@@H](C)O)[C@@H](C)O)[C@@H](C)CC)C(=O)N[C@@H](C)C(=O)N[C@@H](Cc1c[nH]c2ccccc12)C(=O)N[C@@H](CC(C)C)C(=O)N[C@H](C(=O)N[C@@H](CCCCN)C(=O)N[C@@H](Cc1c[nH]cn1)C(=O)N[C@@H](CCCCN)C(=O)N[C@H](C(=O)N[C@H](C(=O)N[C@@H](CC(=O)O)C(=O)O)[C@@H](C)O)[C@@H](C)CC)[C@@H](C)CC [Compound 29] (HELM PEPTIDE1{H.[Aib].E.G.S.F.T.S.E.L.A.T.I.L.D.K.Q.A.A.R.D.F.I.A.W.L.I.K.H.K.I.T.D}|PEPTIDE2{[O=C(O)CCCCCCCCCCCCCCCCC(=O)[*:2]].[gGlu]}$PEPTIDE1,PEPTIDE2,16:R3-2:R2$$$V2.0)	A (>90% normalised stability)	B (>80% stability)	0.31	
